From BindingDB's records for doi:10.1016/s0960-894x(01)00635-7 (Instituto De Química Médica (Csic), 2001)
pEC50: −log10 of the molar value.

Assay: Effective concentration required to inhibit HIV-1 induced cytopathicity by 50% in CEM cells

| SMILES | pEC50 |
| --- | --- |
| Cc1cn([C@@H]2O[C@H](CO[Si](C)(C)C(C)(C)C)[C@@H](O[Si](C)(C)C(C)(C)C)[C@H]2O)c(=O)n(CC(=O)O)c1=O [{3-[4-(tert-Butyl-dimethyl-silanyloxy)-5-(tert-butyl-dimethyl-silanyloxymethyl)-3-hydroxy-tetrahydro-furan-2-yl]-5-methyl-2,6-dioxo-3,6-dihydro-2H-pyrimidin-1-yl}-acetic acid] | 5.74 |

Assay: The compound was evaluated for inhibition of HIV-1 mutant […] recombinant reverse transcriptase

| SMILES | pEC50 |
| --- | --- |
| Cc1cn([C@H]2C[C@H](O[Si](C)(C)C(C)(C)C)[C@@H](CO[Si](C)(C)C(C)(C)C)O2)c(=O)n(CC(=O)O)c1=O | 5.30 |
| Cc1cn(C2OC(CO[Si](C)(C)C(C)(C)C)CC2O[Si](C)(C)C(C)(C)C)c(=O)n(CC(=O)O)c1=O (stereo unspecified) [{3-[3-(tert-Butyl-dimethyl-silanyloxy)-5-(tert-butyl-dimethyl-silanyloxymethyl)-tetrahydro-furan-2-yl]-5-methyl-2,6-dioxo-3,6-dihydro-2H-pyrimidin-1-yl}-acetic acid] | 5.35 |
| Cc1cn([C@@H]2O[C@H](CO[Si](C)(C)C(C)(C)C)[C@@H](O)[C@H]2O[Si](C)(C)C(C)(C)C)c(=O)n(CC(=O)O)c1=O | 5.35 |
| Cc1cn(C2O[C@H](CO[Si](C)(C)C(C)(C)C)[C@@H](O)[C@H]2O)c(=O)n(CC(=O)O)c1=O (stereo partly specified) | 3.93 |
| Cc1cn([C@@H]2O[C@H](CO[Si](C)(C)C(C)(C)C)[C@@H](O[Si](C)(C)C(C)(C)C)[C@H]2O[Si](C)(C)C(C)(C)C)c(=O)n(CC(=O)OCc2ccccc2)c1=O | < 5.00 |
| Cc1cn(C2CCC(CO[Si](C)(C)C(C)(C)C)O2)c(=O)n(CC(=O)OCc2ccccc2)c1=O (stereo unspecified) | < 3.60 |
| Cc1cn([C@@H]2O[C@H](CO)[C@@H](O)[C@H]2O[Si](C)(C)C(C)(C)C)c(=O)n(CC(=O)O)c1=O | 4.70 |
| Cc1cn([C@@H]2O[C@H](CO[Si](C)(C)C(C)(C)C)[C@@H](O[Si](C)(C)C(C)(C)C)[C@H]2O)c(=O)n(CC(=O)OCc2ccccc2)c1=O | < 4.30 |
| Cc1cn([C@@H]2O[C@H](CO[Si](C)(C)C(C)(C)C)[C@@H](O[Si](C)(C)C(C)(C)C)[C@H]2O[Si](C)(C)C(C)(C)C)c(=O)n(CC(=O)O)c1=O | 4.49 |
| Cc1cn([C@@H]2O[C@H](CO)[C@@H](O)[C@H]2O[Si](C)(C)C(C)(C)C)c(=O)n(CC(=O)OCc2ccccc2)c1=O | 5.40 |
